Values of other authors, collected in EP1069913B1, “GELLING OPHTHALMIC COMPOSITIONS CONTAINING XANTHAN GUM” (Alcon Laboratories, Inc., priority 1998, dated 1999).

Details: Maleate: second pKa; Boric Acid: in presence of 3.75 to 4.4 wt.% mannitol

Compound | pKa
O=C(O)/C=C\C(=O)O [Maleate] | 6.33
OB(O)O [Boric Acid] | 5.7-5.85
CC(C)(C)NC[C@H](O)COc1nsnc1N1CCOCC1 [Timolol, reference compound] | 9.21
